From US12624395B2, “Process for identifying a stress state and/or for assessing the stress response level in a subject” (ADISSEO FRANCE S.A.S., priority 2019, dated 2026)

Key:
[1] = system: Ross 308 male broiler chicks; test: Stress, non-adaptation and adaptation scores from gene signatures (RT-qPCR) in the chicken-paraquat model; assay type: in vivo
Source text: (§1) All experimental procedures used in the current study were approved by the Ethics and Research Committee of the institution conducting the study. A total of 144 one-day-old Ross 308 male broiler chicks, with an average body weight (BW) of 39 g, were reared from D1 to D21. They were allocated in 72 battery cages (0.5×0.42 m^2) with wire floors (6 chicks/cage) in environmentally controlled rooms. The birds were randomly assigned to treatment pens with similar starting weights. Each cage was equipped with one trough feeder and one drinker. Birds had ad libitum access to mash feeds and water during all study. Average temperature was 33° C. at placement, being reduced by 1° C. every 2 days until 23° C. to provide comfort throughout the study. The lighting program was 18 hours light and 6 hours dark during each 24 hours period throughout the trial.
The experimental design was a completely randomized factorial design, consisting of a placebo or oxidative stress groups thus two experimental treatments, and 12 replicates per treatment with 6 birds for each replicate. The oxidative stress was applied only from D7 to D14, through the supplementation of a xenobiotic, i.e. paraquat dichloride hydrate (Sigma-Aldrich Company Ltd., Dorset, UK), through the water supply system at the dose of 110 μg/mL. This dosage was achieved by using water containers, individually located in each cage. The control group received standard water (placebo) on the same period using similar containers. A starter and grower diets were provided from D1 to D7, and D8 to D21, respectively. The basal diets were standard wheat/corn-soy-based broiler diets, and were formulated to meet or exceed the nutrient requirements of broilers, as recommended by the NRC (1994). Body weight (BW) was recorded on D1, D7, D14 and D21. On D14 and D21, one bird per pen replicate of each treatment was sacrificed for tissue collection. Briefly, 100 mg of tissue (breast, liver and ileum) were immerged in 2-mL Eppendorf tubes containing 1 mL RNAlater® (Sigma-Aldrich), and kept at −20° C. until analysis. RNA extraction and purification was conducted as described in Example 1.
To remove traces of contaminant genomic DNA, 2.5 μg of total RNA was treated with 2.5 U of DNasel (ThermoFischer) in a final volume of […] for 15 min at 25° C. Next, DNase was inhibited by addition of EDTA to a final concentration of 8 mM and incubated for 10 min at 70° C. Half of the DNase-treated RNA sample was reverse transcribed (RT), the other half was kept as no-RT control. RNA was denatured in a total volume of 17.6 μL containing 1.25 μg total RNA, 5 mM of nonanucleotide random primer (dN9) and 0.5 μM each dNTPs (Thermofischer). This mix was heated to 70° C. for 5 min in a thermocycler (SimpliAmp™, Life Technologies). Then, RT-AMV buffer (Life Sciences Advance Technology) was added together with 40 U RNAsine (Promega) and 0.25 U AMV Reverse Transcriptase (RT) (Life Sciences Advance Technology), and the volume was adjusted to 21.6 μL. Primers were hybridized by incubation at 25° C. for 15 min, and extension was conducted for 2 hours at 45° C. in thermocycler. No-RT controls were treated in parallel, but addition of AMV-RT enzyme was omitted.
For the quantitative PCR reaction, 1 μL of cDNA sample diluted to ⅓ was mixed to 2 μL specific primers mix 2.5 mM each and 5 μL of 2× Takyon sybrgreen—No ROX (Eurogentec) in a final volume of 10 μL. Each PCR reaction was set in triplicate. Amplification was conducted on a LC480 LightCycler® Nano (Roche) using 384 well plates and the following program: 1 initial activation cycle at 95° C. for 3 min, then 45 cycles [95° C. for 10 sec; 60° C. for 15 sec; 72° C. for 15 sec]. Specificity of each amplification was monitored by fusion curve technic detecting a single peak corresponding to one single amplicon, consisting in an initial denaturation at 95° C. for 5 sec, followed by ramping from 55 to 95° C. at 0.11° C./sec, and 5 acquisitions per sec. […]

[2] = assay type: in vivo, chicken; details: paraquat-treated chickens, 110 μg/mL in water supply D7 to D14
Source text: as §1
The experimental design was a completely randomized factorial design, consisting of a placebo or oxidative stress groups thus two experimental treatments, and 12 replicates per treatment with 6 birds for each replicate. The oxidative stress was applied only from D7 to D14, through the supplementation of a xenobiotic, i.e. paraquat dichloride hydrate (Sigma-Aldrich Company Ltd., Dorset, UK), through the water supply system at the dose of 110 μg/mL. […] Body weight (BW) was recorded on D1, D7, D14 and D21. […]

[3] = 4 most conserved genes signature
[4] = twenty-six genes or four most conserved genes signature, FIG. 5, bottom

## C[n+]1ccc(-c2cc[n+](C)cc2)cc1 [paraquat, paraquat dichloride hydrate]
[1]; 4-gene signatures, mean ± SD
  Adaptation Score (%): 0.0 ± 0.0%
  Non-adaptation Score (%): 78.2 ± 29.5%
  Stress Score (%): 69.2 ± 21.6%
[1]; [3]
  Adaptation Score (%): 0%
  Non-adaptation Score (%): 100%
[1]; 4 most conserved genes signature (Anxa1, Anxa2, Chac1, Postn)
  Stress Score (%): 75%
[1]; 5-gene signatures, mean ± SD
  Adaptation Score (%): 0.0 ± 0.0%
  Non-adaptation Score (%): 79.4 ± 24.8%
  Stress Score (%): 69.2 ± 18.9%
[1]; 6-gene signatures, mean ± SD
  Adaptation Score (%): 0.0 ± 0.0%
  Non-adaptation Score (%): 79.8 ± 21.5%
  Stress Score (%): 69.2 ± 16.8%
[1]; 7-gene signatures, mean ± SD
  Adaptation Score (%): 0.0 ± 0.0%
  Non-adaptation Score (%): 79.9 ± 19.0%
  Stress Score (%): 69.2 ± 15.2%
[1]; 8-gene signatures, mean ± SD
  Adaptation Score (%): 0.0 ± 0.0%
  Non-adaptation Score (%): 80.0 ± 17.0%
  Stress Score (%): 69.2 ± 13.8%
[1]; 9-gene signatures, mean ± SD
  Adaptation Score (%): 0.0 ± 0.0%
  Non-adaptation Score (%): 80.0 ± 15.4%
  Stress Score (%): 69.2 ± 12.7%
[1]; 10-gene signatures, mean ± SD
  Adaptation Score (%): 0.0 ± 0.0%
  Non-adaptation Score (%): 80.0 ± 14.1%
  Stress Score (%): 69.2 ± 11.7%
[1]; 11-gene signatures, mean ± SD
  Adaptation Score (%): 0.0 ± 0.0%
  Non-adaptation Score (%): 80.0 ± 13.0%
  Stress Score (%): 69.2 ± 10.8%
[1]; 12-gene signatures, mean ± SD
  Adaptation Score (%): 0.0 ± 0.0%
  Non-adaptation Score (%): 80.0 ± 12.0%
  Stress Score (%): 69.2 ± 10.0%
[1]; 13-gene signatures, mean ± SD
  Adaptation Score (%): 0.0 ± 0.0%
  Non-adaptation Score (%): 80.0 ± 11.0%
  Stress Score (%): 69.2 ± 9.2%
[1]; 14-gene signatures, mean ± SD
  Adaptation Score (%): 0.0 ± 0.0%
  Non-adaptation Score (%): 80.0 ± 10.2%
  Stress Score (%): 69.2 ± 8.5%
[1]; 15-gene signatures, mean ± SD
  Adaptation Score (%): 0.0 ± 0.0%
  Non-adaptation Score (%): 80.0 ± 9.4%
  Stress Score (%): 69.2 ± 7.9%
[1]; 16-gene signatures, mean ± SD
  Adaptation Score (%): 0.0 ± 0.0%
  Non-adaptation Score (%): 80.0 ± 8.7%
  Stress Score (%): 69.2 ± 7.3%
[1]; 17-gene signatures, mean ± SD
  Adaptation Score (%): 0.0 ± 0.0%
  Non-adaptation Score (%): 80.0 ± 7.9%
  Stress Score (%): 69.2 ± 6.7%
[1]; 18-gene signatures, mean ± SD
  Adaptation Score (%): 0.0 ± 0.0%
  Non-adaptation Score (%): 80.0 ± 7.3%
  Stress Score (%): 69.2 ± 6.2%
[1]; 19-gene signatures, mean ± SD
  Adaptation Score (%): 0.0 ± 0.0%
  Non-adaptation Score (%): 80.0 ± 6.6%
  Stress Score (%): 69.2 ± 5.6%
[1]; 20-gene signatures, mean ± SD
  Adaptation Score (%): 0.0 ± 0.0%
  Non-adaptation Score (%): 80.0 ± 6.0%
  Stress Score (%): 69.2 ± 5.0%
[1]; 21-gene signatures, mean ± SD
  Adaptation Score (%): 0.0 ± 0.0%
  Non-adaptation Score (%): 80.0 ± 5.3%
  Stress Score (%): 69.2 ± 4.5%
[1]; 22-gene signatures, mean ± SD
  Adaptation Score (%): 0.0 ± 0.0%
  Non-adaptation Score (%): 80.0 ± 4.6%
  Stress Score (%): 69.2 ± 3.9%
[1]; 23-gene signatures, mean ± SD
  Adaptation Score (%): 0.0 ± 0.0%
  Non-adaptation Score (%): 80.0 ± 3.9%
  Stress Score (%): 69.2 ± 3.3%
[1]; 24-gene signatures, mean ± SD
  Adaptation Score (%): 0.0 ± 0.0%
  Non-adaptation Score (%): 80.0 ± 3.1%
  Stress Score (%): 69.2 ± 2.7%
[1]; 25-gene signatures, mean ± SD
  Adaptation Score (%): 0.0 ± 0.0%
  Non-adaptation Score (%): 80.0 ± 2.2%
  Stress Score (%): 69.2 ± 1.8%
[1]; 26-gene signature, mean ± SD
  Adaptation Score (%): 0.0 ± 0.0%
  Non-adaptation Score (%): 80.0 ± 0.0%
  Stress Score (%): 69.2 ± 0.0%
[1]; [4]
  non-adaptation (NA) score: high
  stress (S) score: high
[2]
  body weight change: weight-loss
